In ChEMBL document CHEMBL1157539, “Thousands of chemical starting points for antimalarial lead identification” (Nature, 2010):

Tested on: Plasmodium falciparum
Experiment: GSK_TCMDC: Inhibition of Plasmodium falciparum 3D7 in whole erythrocytes, using parasite LDH activity as an index of growth.
Assay type: functional, organism-based
Conditions: Plasmodium falciparum, 3D7

Question: How did the XC50 turn out when `CN1CCN(c2ccc(Nc3c4ccccc4nc4ccccc34)cc2)CC1` was run?
Answer: The XC50 was 645 nM.

Question: `CCOc1cc(Cc2cnc(N)nc2N)cc(OCC)c1OCC` was tested. Which XC50 did it give?
Answer: The XC50 was 284 nM.

Question: Which XC50 does the source give for `CCc1nc(N)nc(N)c1-c1cccc(Cl)c1` here?
Answer: The XC50 was 193 nM.

Question: For `CC(=O)N/N=C/[C@H](CCc1ccccc1)NC(=O)[C@H](CC(C)C)NC(=O)c1cccc(OCCN2CCOCC2)c1`, which XC50 is on record?
Answer: Its XC50 is 236 nM.

Question: `Cc1c(Cl)cccc1S(=O)(=O)Nc1cccc(CCN2CCC(N3CCCCC3)CC2)c1` was tested. Which XC50 did it give?
Answer: The XC50 was 830 nM.

Question: With `CCN(CC)CCNc1ccnc2[nH]c3ccc([N+](=O)[O-])cc3c12` as the compound, how does the XC50 read?
Answer: Its XC50 is 198 nM.

Question: Which XC50 does the source give for `Cc1nc(Nc2ccc(C)c(Cl)c2)c2c(C)noc2n1` here?
Answer: Its XC50 is 886 nM.

Question: For `CC[C@@H]([C@@H](Cc1cc2ccccc2s1)C(=O)N[C@@H](CCCCNC(=O)OCc1ccccc1)C(=O)Nc1ccccn1)N(O)C=O`, which XC50 is on record?
Answer: The XC50 was 227 nM.

Question: `CN1CCc2cc(I)c(O)cc2C1Cc1ccccc1Cl` (stereo unspecified) was tested. Which XC50 did it give?
Answer: Its XC50 is 788 nM.

Question: For `CCn1c(-c2nonc2N)nc2c(Cl)ncc(O[C@H](CCN)c3ccccc3F)c21`, which XC50 is on record?
Answer: The XC50 was 1460 nM.

Question: Which XC50 does the source give for `N#CCCn1nc(-c2ccc(Cl)cc2)c2c(c1=O)CCCC2` here?
Answer: The XC50 was 892 nM.

Question: With `COc1ccc(CC(C)NCC(O)c2cccc(C(F)(F)F)c2)cc1F` (stereo unspecified) as the compound, how does the XC50 read?
Answer: The XC50 was 827 nM.

Question: `CC1CCC(NCc2ccc3c(CNC4CCC(C)CC4)c(O)ccc3c2O)CC1` (stereo unspecified) was tested. Which XC50 did it give?
Answer: Its XC50 is 116 nM.

Question: For `CCC(=O)Nc1ccc(Nc2nc(C)cc(N3CCCC3)n2)cc1`, which XC50 is on record?
Answer: The XC50 was 1320 nM.

Question: Which XC50 does the source give for `CC(C)C(=O)ONC1=NC(=N)N(OCCCOc2cc(Cl)c(Cl)cc2Cl)C(C)(C)N1` here?
Answer: The XC50 was 3.2 nM.

Question: Which XC50 does the source give for `COc1ccccc1C1CCN(C2CCC(NC(=O)c3cc4cc(C(C)C)ccc4[nH]3)CC2)CC1` (stereo unspecified) here?
Answer: The XC50 was 850 nM.

Question: Which XC50 does the source give for `O=C(NC1CCC(CN2CCC(c3c[nH]c4ccccc34)CC2)CC1)c1cn(Cc2ccccc2)c2ccccc12` (stereo unspecified) here?
Answer: Its XC50 is 1130 nM.

Question: For `COc1ccc(-c2nonc2NC(=O)c2ccc(C(C)(C)C)cc2)cc1OC`, which XC50 is on record?
Answer: Its XC50 is 814 nM.

Question: How did the XC50 turn out when `NC(=O)c1ccc(NC(=O)CN(Cc2ccc(Cl)cc2)S(=O)(=O)c2ccccc2)cc1` was run?
Answer: Its XC50 is 653 nM.

Question: For `Cc1[nH]c(C)c(-c2ccc(OCc3ccccc3)cc2)c(=O)c1Br`, which XC50 is on record?
Answer: The XC50 was 280 nM.

Question: How did the XC50 turn out when `Cn1c(=N)n(CC(=O)OCc2ccc(OCc3ccccc3)cc2)c2ccccc21` was run?
Answer: The XC50 was 81.9 nM.

Question: With `CC(=O)N(Cc1ccccc1-c1cccc(CNCc2ccc3c(c2)OCO3)c1)C1CCN(Cc2ccccc2)CC1` as the compound, how does the XC50 read?
Answer: The XC50 was 1050 nM.

Question: Which XC50 does the source give for `CC(C)(C)c1nn(-c2ccc(Cl)cc2)c2[nH]c(=O)c(CNCc3cccs3)cc12` here?
Answer: Its XC50 is 759 nM.

Question: `CCCCc1cc(NCc2ccncc2)nc(Nc2ccccc2)n1` was tested. Which XC50 did it give?
Answer: Its XC50 is 843 nM.

Question: `CC1(CCCCN2CCC(Oc3ccc(F)cc3F)CC2)C(=O)Nc2ccccc21` (stereo unspecified) was tested. Which XC50 did it give?
Answer: The XC50 was 761 nM.

Question: For `COc1ccccc1C(=O)Nc1ccc(Nc2nc(C)cc(N3CCOCC3)n2)cc1`, which XC50 is on record?
Answer: Its XC50 is 528 nM.

Question: `Cc1cc(N[C@@H](Cc2ccccc2)C(=O)Nc2ccccc2)nc(Nc2ccccc2)n1` was tested. Which XC50 did it give?
Answer: Its XC50 is 1010 nM.

Question: How did the XC50 turn out when `Cc1ccc(O)c(C(=O)c2cnc3c(c2)c(-c2ccc(F)cc2)c(C#N)c(=O)n3C)c1` was run?
Answer: Its XC50 is 971 nM.

Question: Which XC50 does the source give for `c1ccc2[nH]c(-c3ccc(-c4ccc(CN5CCN(CCN6CCOCC6)CC5)cc4)cc3)nc2c1` here?
Answer: The XC50 was 158 nM.

Question: Which XC50 does the source give for `CCN(CC)CC(O)c1cc(-c2ccc(OC)cc2)nc2cc(Cl)ccc12` (stereo unspecified) here?
Answer: Its XC50 is 67.1 nM.

Question: With `CC(=O)Nc1ncc(C(=O)Nc2cccc(-c3ccc(-c4nc5ccccc5[nH]4)cc3)c2)s1` as the compound, how does the XC50 read?
Answer: The XC50 was 669 nM.

Question: `Cc1ccc(S(=O)(=O)NC2=NC(=N)N(OCc3ccc(Cl)c(Cl)c3)C(C)(C)N2)cc1` was tested. Which XC50 did it give?
Answer: The XC50 was 1140 nM.

Question: `CN1CCCN(Cc2cccc(-c3ccc(CNC(=O)c4cccc(Cl)c4)c(F)c3)c2)CC1` was tested. Which XC50 did it give?
Answer: Its XC50 is 190 nM.

Question: For `CCCc1cc(=O)[nH]c(-n2nc(C)cc2NC(=O)c2cc3ccccc3o2)n1`, which XC50 is on record?
Answer: The XC50 was 1110 nM.

Question: With `O=C(Nc1ccc(Cn2ncc(N3CCCNCC3)c(Cl)c2=O)cc1)Nc1cccc(SC(F)(F)F)c1` as the compound, how does the XC50 read?
Answer: Its XC50 is 675 nM.

Question: `CNC(=O)c1cc(S(=O)(=O)N2CCN(c3ccccn3)CC2)c(C)s1` was tested. Which XC50 did it give?
Answer: Its XC50 is 1160 nM.

Question: With `Cc1cccc2nc(-c3ccc(-c4cccc(NC(=O)Nc5ccc(Cl)c(Cl)c5)c4)s3)[nH]c12` as the compound, how does the XC50 read?
Answer: The XC50 was 594 nM.

Question: With `CC(CN1CCN(C)CC1)C(=O)Nc1ccc(-c2cccc(-c3nc4cc(F)ccc4[nH]3)c2)cc1` (stereo unspecified) as the compound, how does the XC50 read?
Answer: The XC50 was 522 nM.

Question: How did the XC50 turn out when `O=C(Nc1ccc(Cl)cc1)N1CCN(C2CCCCC2)CC1` was run?
Answer: Its XC50 is 986 nM.

Question: `S=C(NCCCCCN1CCC(c2c[nH]c3ccccc23)CC1)Nc1ccc(Cl)c(Cl)c1` was tested. Which XC50 did it give?
Answer: Its XC50 is 709 nM.

Question: Which XC50 does the source give for `COc1ccccc1Cn1ccnc1SCC(=O)Nc1cccc(C(F)(F)F)c1` here?
Answer: Its XC50 is 907 nM.

Question: `CN(C)CCC1CCCc2ccc(NC(=O)Nc3ccc(-c4ccncc4)c4ccccc34)cc21` (stereo unspecified) was tested. Which XC50 did it give?
Answer: Its XC50 is 1070 nM.

Question: With `C=CCOc1ccc(CNC2CCN(Cc3ccccc3)CC2)cc1Br` as the compound, how does the XC50 read?
Answer: Its XC50 is 1420 nM.

Question: `CCCCCCNC(=O)C1Cc2c([nH]c3ccc(Br)cc23)C2(CCN(Cc3ccccc3)CC2)N1` (stereo unspecified) was tested. Which XC50 did it give?
Answer: The XC50 was 722 nM.

Question: Which XC50 does the source give for `CNC(=O)COc1ccc(Nc2nnc(-c3ccc(C)c(S(=O)(=O)NCC4CCCO4)c3)c3ccccc23)cc1` (stereo unspecified) here?
Answer: The XC50 was 933 nM.

Question: How did the XC50 turn out when `COc1ccc2nccc([C@@H](O)CN3CCC(NCCNc4cccc(F)c4)CC3)c2c1` was run?
Answer: The XC50 was 176 nM.

Question: For `CN1CCN(CCCN(Cc2csc(-c3ccc(CNCc4ccccc4)cc3)n2)S(=O)(=O)c2cccc3cccnc23)CC1`, which XC50 is on record?
Answer: The XC50 was 1410 nM.

Question: With `CC(=O)Oc1c(C2CCN(CCCCNC(=O)c3ccc(NC(=O)c4ccc(Cl)cc4)cc3)CC2)ccc2c1CCCC2` as the compound, how does the XC50 read?
Answer: Its XC50 is 764 nM.

Question: For `COC(=O)c1ccc(CC(C)NCC(O)c2ccc(F)c(Cl)c2)cc1` (stereo unspecified), which XC50 is on record?
Answer: The XC50 was 863 nM.

Question: For `O=C(Nc1ccc(-c2nc3ccccc3[nH]2)cc1)C1CCN(Cc2ccc(F)cc2)CC1`, which XC50 is on record?
Answer: The XC50 was 838 nM.

Question: Which XC50 does the source give for `CCOC(=O)c1c(CN2CCCC2)n(-c2ccccc2)c2cc(Br)c(O)cc12` here?
Answer: Its XC50 is 1010 nM.

Question: With `O=C(Nc1ccc(N2CCN(Cc3ccccc3Cl)CC2)cc1)c1ccc([N+](=O)[O-])o1` as the compound, how does the XC50 read?
Answer: The XC50 was 975 nM.

Question: With `Cc1cc(N[C@@H](Cc2ccccc2)C(=O)NCCOc2ccccc2)nc(NCCOc2ccccc2)n1` as the compound, how does the XC50 read?
Answer: The XC50 was 1360 nM.

Question: With `Cc1cccc(CN2CCCC3(CCN(Cc4ccccc4O)C3)C2)c1` (stereo unspecified) as the compound, how does the XC50 read?
Answer: The XC50 was 801 nM.

Question: For `Cc1cccc2nc(-c3ccc(-c4cccc(CNCc5ccc(CN)cc5)c4)s3)[nH]c12`, which XC50 is on record?
Answer: Its XC50 is 606 nM.

Question: With `CN1CCN(c2ccc(-c3cccc(NC(=O)c4cccc([N+](=O)[O-])c4)c3)nn2)CC1` as the compound, how does the XC50 read?
Answer: Its XC50 is 527 nM.

Question: Which XC50 does the source give for `COc1cccc(-c2csc(C(=O)NCC3CCN(Cc4ccc(C(C)(C)C)cc4)C3)c2)c1` (stereo unspecified) here?
Answer: The XC50 was 1180 nM.

Question: Which XC50 does the source give for `CN1CCCC1CCNc1ncc2c(-c3ccc(NC(=O)Nc4cc(C(F)(F)F)ccc4F)c(F)c3)nn(C)c2n1` (stereo unspecified) here?
Answer: Its XC50 is 287 nM.

Question: With `Cn1nccc1C(=O)NCCNCc1cccc(-c2cccc(-c3nc4cc(C(F)(F)F)ccc4[nH]3)c2)c1` as the compound, how does the XC50 read?
Answer: Its XC50 is 172 nM.

Question: How did the XC50 turn out when `Cc1cccc(Cl)c1S(=O)(=O)Nc1cccc(CCN2CCC(N3CCCCC3)CC2)c1` was run?
Answer: The XC50 was 1110 nM.

Question: For `Cc1cc(-c2ccc(S(=O)(=O)Nc3cc4c(cc3OC(C)C)CCN(C)CC4)cc2)ccc1Cl`, which XC50 is on record?
Answer: The XC50 was 904 nM.

Question: How did the XC50 turn out when `COc1cccc(-c2cc(C(F)(F)F)n3ncc(C(=O)Nc4cc(Cl)ccc4O)c3n2)c1` was run?
Answer: The XC50 was 203 nM.

Question: Which XC50 does the source give for `Clc1ccc(Sc2cncnc2N2CCOCC2)cc1` here?
Answer: The XC50 was 40.2 nM.

Question: With `c1ccc(CCNc2nc(NCC(c3ccccc3)c3ccccc3)c3nc[nH]c3n2)cc1` as the compound, how does the XC50 read?
Answer: Its XC50 is 617 nM.

Question: For `COc1cc2nc(NCCn3ccnc3C)nc(NCCc3ccccc3)c2cc1OC`, which XC50 is on record?
Answer: The XC50 was 727 nM.

Question: Which XC50 does the source give for `Cc1ccc2nc(-c3ccc(C(=O)NC4CCN(Cc5ccccc5)CC4)cc3)[nH]c2c1C` here?
Answer: The XC50 was 729 nM.

Question: For `CCCCCN1CCCC1CNS(=O)(=O)c1cccc(C(=O)Nc2cccc(C(F)(F)F)c2)c1` (stereo unspecified), which XC50 is on record?
Answer: Its XC50 is 770 nM.

Question: Which XC50 does the source give for `CNC(=O)c1cnc(Nc2ccc(OCC(O)CN(C)C)cc2)nc1Nc1cccc(Br)c1` (stereo unspecified) here?
Answer: Its XC50 is 121 nM.

Question: Which XC50 does the source give for `O=S(=O)(NC1CCN(c2ccnc3cc(Cl)ccc23)C1)c1cccc(F)c1` (stereo unspecified) here?
Answer: The XC50 was 486 nM.

Question: For `COc1ccccc1-c1sccc1C(=O)NC1(c2cc(Cl)cc(Cl)c2)CCCC1`, which XC50 is on record?
Answer: The XC50 was 938 nM.

Question: With `CCN(Cc1cccc2ccccc12)c1ccc2nc(N)nc(N)c2c1` as the compound, how does the XC50 read?
Answer: The XC50 was 3.2 nM.
